Patent publication US10456407B2, “Combination therapy for treating cancer” (Epizyme, Inc., priority 2015, dated 2019)

Tests used:
RP-R-02LM ccRCC PDX = format: in vivo; conditions: tumors at primary site
Protocol: Mice bearing human ccRCC patient derived xenograft (PDXs); RP-R-01, RP-R-02 and RP-R-02LM (a metastatic ccRCC model established from RP-R-02) were implanted into SCID mice. […] Tumors volumes and body weight were assessed once per week. Tumor tissues and lungs were collected for immunohistochemistry analysis. All assessments and quantification were done blindly.

DOHH2 cells = conditions: DOHH2 (WT EZH2 GCB); drug combined with Compound 44
Protocol: (§1) After 3 days of co-treatment, cell viability was measured via ATP content using CellTiter-Glo®
(§2) Synergy quantification is performed using the Chou-Talalay method^3 for drug combination. The Combination Index (CI) equation offers a quantitative definition for additivity (CI=1), synergism (CI<1), and antagonism (CI>1). This equation used Fa values from a constant ratio of drug combination to determine CI values. […] These Fa-CI plots are generated using the Calcusyn software.
(§3) After 3 days of co-treatment (5 days for Toledo assays), cell viability was measured via ATP content using CellTiter-Glo® (Promega) and luminescence was detected using a SpectraMax M5 microplate reader (Molecular Devices).
as §2, with “Chou-Talalay method” for “Chou-Talalay method^3”, “drug combination (Ref 1).” for “drug combination.”, “used fractional effect (Fa)” for “used Fa”, “Calcusyn for Windows software (Ref2).” for “Calcusyn software.”
(§4) Dose responses were plotted using Graphpad Prism and either 50% or 60% inhibitory concentrations were interpolated from the dose response curves.

SU-DHL10 cells = conditions: for growth inhibition by the drug by itself: SU-DHL10, single agent
Protocol: as §1, §2, §3
as §2, with “Chou-Talalay method” for “Chou-Talalay method^3”, “drug combination (Ref 1).” for “drug combination.”, “used fractional effect (Fa)” for “used Fa”, “Calcusyn for Windows software (Ref2).” for “Calcusyn software.”
as §4

Toledo cells = conditions: Toledo (WT EZH2 ABC); drug combined with Compound 44
Protocol: as §1, §2, §3
as §2, with “Chou-Talalay method” for “Chou-Talalay method^3”, “drug combination (Ref 1).” for “drug combination.”, “used fractional effect (Fa)” for “used Fa”, “Calcusyn for Windows software (Ref2).” for “Calcusyn software.”
as §4

WSU-DLCL2 cells = conditions: for growth inhibition by the drug by itself: WSU-DLCL2, single agent
Protocol: as §1, §2, §3
as §2, with “Chou-Talalay method” for “Chou-Talalay method^3”, “drug combination (Ref 1).” for “drug combination.”, “used fractional effect (Fa)” for “used Fa”, “Calcusyn for Windows software (Ref2).” for “Calcusyn software.”
as §4

[1] = due to its cardiotoxicity; cited from earlier work
[2] = system: EZH2 mutant lymphoma cell line; experiment: Combination assay with targeted therapies (pre-treatment model A, Calcusyn), EZH2 mutant lymphoma cell line; format: cell-based; conditions: pretreatment model A, combined with Compound 44
Description: Statistically significant CI values for synergy are for example those CI value<1 with the confidence interval lines also below 1.
CI values<1 with confidence interval lines also below 1 indicate statistically significant synergism.

[3] = SU-DHL 10 (EZH2 mutant GCB), drug combined with Compound 44
[4] = WSU-DLCL2 (EZH2 mutant GCB), drug combined with Compound 44

| SMILES | Summary of Combinations with Compound 44 (combination effect) (Toledo cells) | Summary of Combinations with Compound 44 (combination effect) (DOHH2 cells) | Summary of Combinations with Compound 44 (combination effect) (SU-DHL10 cells; [3]) | growth inhibition by the drug by itself (SU-DHL10 cells) | Summary of Combinations with Compound 44 (combination effect) (WSU-DLCL2 cells; [4]) | growth inhibition by the drug by itself (WSU-DLCL2 cells) | synergy in combination with Compound 44 [2] | other results |
| --- | --- | --- | --- | --- | --- | --- | --- | --- |
| CCN(c1cc(C#CCN2CCOCC2)cc(C(=O)NCc2c(C)cc(C)[nH]c2=O)c1C)C1CCC(N(C)CCOC)CC1 (centres unmarked) [Compound B] | – | – | – | – | – | – | – | cell proliferation (Ki67 stain) (RP-R-02LM ccRCC PDX): Decreased cell proliferation |
| C[C@@H]1C[C@H]2[C@@H]3CCC4=CC(=O)C=C[C@]4(C)[C@@]3(F)[C@@H](O)C[C@]2(C)[C@@]1(O)C(=O)CO [Dexamethasone, dexamethasone] | no effect | – | – | – | – | – | – | Summary of Combinations with Compound 44: potency enhanced (DOHH2 cells): potency enhanced 4x; Summary of Combinations with Compound 44: potency enhanced (SU-DHL10 cells; [3]): potency enhanced 5x; Summary of Combinations with Compound 44: potency enhanced (WSU-DLCL2 cells; [4]): 15x |
| COc1cccc2c1C(=O)c1c(O)c3c(c(O)c1C2=O)C[C@@](O)(C(=O)CO)C[C@@H]3O[C@H]1C[C@H](N)[C@H](O)[C@H](C)O1 [Doxurubicin, doxorubicin] | no effect | no effect | additive (Cl = 1 additive) | concentration-dependent growth inhibition | synergy (Cl < 1 synergy) | concentration-dependent growth inhibition | – | lifetime cumulative dosing limit [1]: < 550 mg/m^2 |
| CC1(C)CCC(c2ccc(Cl)cc2)=C(CN2CCN(c3ccc(C(=O)NS(=O)(=O)c4ccc(N[C@H](CCN5CCOCC5)CSc5ccccc5)c(S(=O)(=O)C(F)(F)F)c4)cc3)CC2)C1 [Navitoclax] | – | – | – | – | – | – | Very strong synergy | – |
| CC[C@]1(O)C[C@H]2CN(CCc3c([nH]c4ccccc34)[C@@](C(=O)OC)(c3cc4c(cc3OC)N(C=O)[C@H]3[C@@](O)(C(=O)OC)[C@H](OC(C)=O)[C@]5(CC)C=CCN6CC[C@]43[C@@H]65)C2)C1 [Vincristine, vincristine] | no effect | no effect | additive (Cl = 1 additive) | concentration-dependent growth inhibition | additive (Cl = 1 additive) | concentration-dependent growth inhibition | – | – |
| CO[C@H]1C[C@@H]2CC[C@@H](C)[C@@](O)(O2)C(=O)C(=O)N2CCCC[C@H]2C(=O)O[C@H]([C@H](C)C[C@@H]2CC[C@@H](OCCO)[C@H](OC)C2)CC(=O)[C@H](C)/C=C(\C)[C@@H](O)[C@@H](OC)C(=O)[C@H](C)C[C@H](C)/C=C/C=C/C=C/1C [everolimus] | – | – | – | – | – | – | Very strong synergy | – |
